Data as given in ChEMBL document CHEMBL1201862, “PubChem BioAssay data set” (2004).
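Test compounds were applied to cells in 96-well plates for 48 hours at 5 doses. GI50: concentration for 50% inhibition of growth.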 Calls of active or inactive are those of the source. Cut-off read from the data, not from the text of the source: active = GI50 up to about 1.1 µM and inactive = higher.

Key:
Assay in all cases: inhibition of tumour cell growth, NCI panel, 48 h
LXFL 529 = test system: LXFL 529
786-0 = test system: 786-0
HCT-15 = test system: HCT-15
UACC-62 = test system: UACC-62
DLD-1 = test system: DLD-1
OVCAR-4 = test system: OVCAR-4
DMS-114 = test system: DMS-114
RPMI-8226 = test system: RPMI-8226
NCI-H522 = test system: NCI-H522
IGROV-1 = test system: IGROV-1
M14 = test system: M14
HOP-92 = test system: HOP-92
NCI-H23 = test system: NCI-H23
UO-31 = test system: UO-31
Malme-3M = test system: Malme-3M
SK-OV-3 = test system: SK-OV-3
CCRF-CEM = test system: CCRF-CEM
MOLT-4 = test system: MOLT-4
ACHN = test system: ACHN
SF-268 = test system: SF-268
SN12C = test system: SN12C
SK-MEL-2 = test system: SK-MEL-2
HL-60 = test system: HL-60
HCC 2998 = test system: HCC 2998
NCI-H226 = test system: NCI-H226
SR = test system: SR
HOP-62 = test system: HOP-62
A498 = test system: A498
SK-MEL-28 = test system: SK-MEL-28
DMS-273 = test system: DMS-273
COLO 205 = test system: COLO 205
SF-539 = test system: SF-539
CAKI-1 = test system: CAKI-1
SNB-75 = test system: SNB-75
K562 = test system: K562
HCT-116 = test system: HCT-116
RXF 393 = test system: RXF 393
UACC-257 = test system: UACC-257
NCI/ADR-RES = test system: NCI/ADR-RES
T47D = test system: T47D
LOX IMVI = test system: LOX IMVI
PC-3 = test system: PC-3
NCI-H460 = test system: NCI-H460
Hs-578T = test system: Hs-578T
MDA-MB-435 = test system: MDA-MB-435
KM12 = test system: KM12
MDA-N = test system: MDA-N
U-251 = test system: U-251
MCF7 = test system: MCF7
SK-MEL-5 = test system: SK-MEL-5
OVCAR-8 = test system: OVCAR-8
DU-145 = test system: DU-145
A549 = test system: A549
OVCAR-3 = test system: OVCAR-3
HT-29 = test system: HT-29
SNB-19 = test system: SNB-19
BT-549 = test system: BT-549
SF-295 = test system: SF-295
TK-10 = test system: TK-10
MDA-MB-231 = test system: MDA-MB-231
OVCAR-5 = test system: OVCAR-5
SW-620 = test system: SW-620
EKVX = test system: EKVX
KM-20L2 = test system: KM-20L2
M19-MEL = test system: M19-MEL

Measured: GI50

COc1cc([C@H]2Oc3cc(O)c4c(=O)cc(-c5ccccc5)oc4c3O[C@@H]2CO)ccc1O
inactive: LXFL 529 21.6 µM | 786-0 23.4 µM | UACC-62 25.1 µM | DLD-1 46.9 µM | OVCAR-4 19.9 µM | DMS-114 28 µM | RPMI-8226 59.8 µM | NCI-H522 19.3 µM | IGROV-1 34 µM | M14 39 µM | HOP-92 29.7 µM | NCI-H23 22.5 µM | UO-31 13.8 µM | Malme-3M 19 µM | SK-OV-3 27.4 µM | CCRF-CEM 65.6 µM | MOLT-4 46.5 µM | ACHN 20.3 µM | SF-268 15.6 µM | SN12C 32.9 µM | SK-MEL-2 40.4 µM | HL-60 50.8 µM | HCC 2998 58.5 µM | NCI-H226 32.4 µM | SR 29.4 µM | HOP-62 55.1 µM | A498 21.9 µM | SK-MEL-28 28.6 µM | DMS-273 51.3 µM | COLO 205 69.5 µM | SF-539 22.2 µM | CAKI-1 26.4 µM | SNB-75 16.8 µM | K562 48.4 µM | HCT-116 30.1 µM
91.2 µM: HCT-15

O=C(O)Cc1ccc(Oc2nc3ccccc3nc2-c2cccs2)cc1
35.3 µM: HCT-15
inactive: RXF 393 17.4 µM | UACC-257 > 100 µM | NCI/ADR-RES 60.5 µM | T47D 20 µM | 786-0 80 µM | LOX IMVI 40.6 µM | PC-3 46.3 µM | UACC-62 58.1 µM | NCI-H460 50.7 µM | Hs-578T 61.7 µM | OVCAR-4 51.1 µM | RPMI-8226 33.1 µM | NCI-H522 65.2 µM | IGROV-1 68.9 µM | M14 66.4 µM | HOP-92 34.3 µM | NCI-H23 55.8 µM | MDA-MB-435 92 µM | UO-31 37.3 µM | Malme-3M > 100 µM | SK-OV-3 > 100 µM | CCRF-CEM 49.3 µM | KM12 44.2 µM | MOLT-4 50 µM | ACHN 56.6 µM | MDA-N 82.2 µM | SF-268 66.4 µM | U-251 30.5 µM | MCF7 38.5 µM | SN12C 84.9 µM | SK-MEL-5 72.9 µM | SK-MEL-2 84.1 µM | HL-60 55.8 µM | HCC 2998 57.4 µM | OVCAR-8 71.9 µM | NCI-H226 52.4 µM | SR 38.8 µM | HOP-62 > 100 µM | DU-145 81.7 µM | A498 22.1 µM | SK-MEL-28 60.4 µM | A549 46.7 µM | OVCAR-3 48.4 µM | HT-29 42.6 µM | SNB-19 82.8 µM | COLO 205 31 µM | BT-549 30.5 µM | SF-539 79.4 µM | SF-295 42.6 µM | TK-10 95.1 µM | CAKI-1 55.7 µM | MDA-MB-231 > 100 µM | OVCAR-5 62.7 µM | SNB-75 27.2 µM | K562 99.3 µM | HCT-116 54.6 µM | SW-620 > 100 µM | EKVX 32.4 µM

COc1cc(C2c3cc4c(cc3[C@@H](NC3CCN(Cc5ccccc5)CC3)C3COC(=O)[C@H]23)OCO4)cc(OC)c1O (stereo partly drawn)
active: DLD-1 0.408 µM | KM-20L2 0.354 µM | SK-OV-3 0.0457 µM | CCRF-CEM 0.0251 µM | KM12 0.33 µM | SF-268 0.203 µM | HL-60 0.0189 µM | HCC 2998 0.274 µM | OVCAR-8 0.161 µM | NCI-H226 0.0137 µM | HOP-62 0.0282 µM | M19-MEL 0.308 µM | A498 0.136 µM | SK-MEL-28 0.627 µM | A549 0.0133 µM | OVCAR-3 0.277 µM | HT-29 0.243 µM | SNB-19 0.177 µM | SF-539 0.0706 µM | SF-295 0.0311 µM | OVCAR-5 0.34 µM | HCT-116 0.195 µM
0.132 µM: HCT-15
